Legend:
[1] = system: cardiomyocyte cell line HL-1; experiment: Proliferation of cardiomyocyte cell line HL-1, BrdU-ELISA; type: cell-based; conditions: same concentrations as on HCFs, 24 h, DMSO control
Description: (§1) HCFs and HL-1 cells were treated with Bufalin, Gitoxigenin, Lycorine and Anisomycin for 24 h with the same concentrations as indicated in Example 1 and proliferation of HCFs and cardiomyocyte cell line HL-1 cells was measured by BrdU-ELISA, DMSO refers as a control (see FIG. 2B, 3B, 4B, 5B). The cell proliferation ELISA is a colorimetric alternative to quantitate cell proliferation based on the measurement of BrdU incorporation during DNA synthesis in proliferating cells. After its incorporation into DNA, BrdU is detected by immunoassay by using antibodies being highly specific for BrdU. First, HCFs and/or HL-1 cells are cultured together with various dilutions of test substances (e.g. mitogens, growth factors, cytokines and test compounds such as Bufalin, Gitoxigenin, Lycorine and Anisomycin as mentioned above etc.) in a 96-well in a final volume of 100 μl/well in a humified atmosphere of 37° C. Afterwards, 10 μl/well BrdU labeling solution is added to the cells being cultured in 100 μl/well (final concentration: 10 μM BrdU). Then, cells were re-incubated for additional 2 to 24 h at 37° C. Next, labeling solution is removed and 200 μl/well FixDenat is added to the cells and incubated for 30 min at 15 to 25° C. Then, 100 μl/well anti-BrdU-POD working solution is added and incubated for approximately 90 min, after FixDenat is removed. Next, antibody conjugate is removed and wells are washed with 200 μl-300 μl/well Washing solution (PBS, 1×). After the washing solution is removed, 100 μl/well Substrate solution is added and it is incubated again until color development is sufficient for photometric detection. Further, HCFs were treated with said compounds (Lycorine: 5 μM, Bufalin: 1 μM, Gitoxigenin: 1 μM and Anisomycin: 1 μM) for 24 h as indicated again and subjected to FACS analysis after Annexin-7AAD-staining (see FIG. 2C, 3C, 4C, 5C). After the treatment with said compounds, annexin-7AAD-staining starts with inducing apoptosis in HCFs by a desired method, known to the person skilled in the art, a negative control (w/o induction and staining) and a positive control (f. ex. 500 μM H2O2 or 3 μM Staurosporin) is also needed. Then, the medium with HCFs is transferred into a falcon, washed with PBS and trypsinized. Everything is centrifuged for 5 min at 300×g and then the supernatant is aspirated. The pellet is re-suspended in 200 μl Annexin Red/7AAD Working Solution (1:20, 5 μl Annexin Red/7AAD+195 μl 1× Assay Buffer) and transferred into an Easy Cap Eppendorf tube. After incubation of 15 min at 37° C., it is centrifuged at room temperature (RT) for 5 min at 300×g. […] Samples are now ready for acquisition on a flow cytometer (blue and red laser).

primary HCFs = experiment: Cell death in HCFs, FACS after Annexin-7AAD-staining; type: cell-based, human; conditions: Lycorine 5 μM, Bufalin, Gitoxigenin, Anisomycin 1 μM, 24 h
Description: as §1

Collagen1a1 = Collagen1a1 protein levels in HCFs, Western Blot; type: cell-based, human; conditions: Lycorine 5 μM, Bufalin, Gitoxigenin, Anisomycin 1 μM, 24 h, DMSO control
Description: Additionally, HCFs were treated with said compounds (Lycorine: 5 μM, Bufalin: 1 μM, Gitoxigenin: 1 μM and Anisomycin: 1 μM) for 24 h as indicated again, lysed and analyzed for extracellular matrix component Collagen1a1 protein levels in primary HCFs (normalized to GAPDH) by representative Western Blot, DMSO refers as a control (see FIG. 2D, 3D, 4D, 5D).

miR-671-5p = miR-671-5p expression in HCFs, qRT-PCR; type: cell-based, human; conditions: Lycorine 5 μM, others 1 μM, 24 h, vs DMSO
circular RNA CDR1as = experiment: CDR1as expression in HCFs, qRT-PCR; type: cell-based, human; conditions: Lycorine 5 μM, others 1 μM, 24 h, vs DMSO
Description: (§2) Expression levels of CDR1as are increased in primary HCFs upon treatment with Bufalin, Gitoxigenin, Lycorine, Anisomycin and Geldanamycin. HCFs were incubated for 24 h with Bufalin (1 μM), Gitoxigenin (1 μM,) Lycorine (5 μM), Anisomycin (1 μM) and Geldanamycin (1 μM) and upregulation of CDR1as (normalized to 18S rRNA) by the respective compound was validated via qRT-PCR (see FIG. 22).

CDR1 mRNA = type: cell-based, human; conditions: Lycorine 5 μM, others 1 μM, 24 h, vs DMSO
Description: as §2, with “of CDR1 mRNA change independently of miR-671-5p or” for “of”, “CDR1as” for “CDR1as are increased”, “impact on CDR1 mRNA level” for “upregulation of CDR1as”, “GAPDH)” for “18S rRNA)”, “23).” for “22).”

C[C@]12CC[C@H](O)C[C@H]1CC[C@@H]1[C@@H]2CC[C@]2(C)[C@@H](c3ccc(=O)oc3)CC[C@]12O [Bufalin]
proliferation of the cardiomyocyte cell line HL-1 [1]: no impact | cell death in primary HCFs (Annexin-7AAD-staining) (primary HCFs): does not induce cell death | expression levels of Collagen1a1 (normalized to GAPDH) (Collagen1a1): decreases expression levels | expression levels of miR-671-5p (normalized to RNU48) (miR-671-5p): decreased | expression levels of CDR1as (normalized to 18S rRNA) (circular RNA CDR1as): increase | expression levels of CDR1 mRNA (normalized to GAPDH) (CDR1 mRNA): decrease

C[C@]12CC[C@H](O)C[C@H]1CC[C@@H]1[C@@H]2CC[C@]2(C)[C@@H](C3=CC(=O)OC3)[C@@H](O)C[C@]12O [Gitoxigenin]
proliferation of the cardiomyocyte cell line HL-1 [1]: no impact | cell death in primary HCFs (Annexin-7AAD-staining) (primary HCFs): does not induce cell death | expression levels of Collagen1a1 (normalized to GAPDH) (Collagen1a1): decreases expression levels | expression levels of miR-671-5p (normalized to RNU48) (miR-671-5p): decreased | expression levels of CDR1as (normalized to 18S rRNA) (circular RNA CDR1as): increase | expression levels of CDR1 mRNA (normalized to GAPDH) (CDR1 mRNA): decrease

COc1ccc(C[C@H]2NC[C@H](O)[C@H]2OC(C)=O)cc1 [Anisomycin]
proliferation of the cardiomyocyte cell line HL-1 [1]: no impact | cell death in primary HCFs (Annexin-7AAD-staining) (primary HCFs): does not induce cell death | expression levels of Collagen1a1 (normalized to GAPDH) (Collagen1a1): decreases expression levels | expression levels of miR-671-5p (normalized to RNU48) (miR-671-5p): decreased | expression levels of CDR1as (normalized to 18S rRNA) (circular RNA CDR1as): increase | expression levels of CDR1 mRNA (normalized to GAPDH) (CDR1 mRNA): decrease

O[C@H]1[C@H]2c3cc4c(cc3CN3CCC(=C[C@@H]1O)[C@H]23)OCO4 [Lycorine]
proliferation of the cardiomyocyte cell line HL-1 [1]: no impact | cell death in primary HCFs (Annexin-7AAD-staining) (primary HCFs): does not induce cell death | expression levels of Collagen1a1 (normalized to GAPDH) (Collagen1a1): decreases expression levels | expression levels of miR-671-5p (normalized to RNU48) (miR-671-5p): decreased | expression levels of CDR1as (normalized to 18S rRNA) (circular RNA CDR1as): increase | expression levels of CDR1 mRNA (normalized to GAPDH) (CDR1 mRNA): decrease
